pEC50: −log10 of the molar value. Like-named read-outs stand apart in the source and are kept apart here.
Assays:
[1] = tested on: M9 ENL1 cell line; assay: Anti-leukemic activity, Annexin V/7-AAD flow cytometry; type: cell-based; conditions: 24 h of drug exposure, read-out: M9ENL1 (EC50)
Experimental: (§1) The newly synthesized triazole derivatives of melampomagnolide B were screened for anti-leukemic activity against M9 ENL1 and primary AML cell lines; the latter were obtained with informed consent from human patients. Evaluations were performed after 24 h of drug exposure using flow cytometric analysis by labeling with Annexin V and 7-aminoactinomycin D (7-AAD) to delineate apoptotic cell populations. In all experiments PTL was included as a reference control.

[2] = tested on: HL-60(TB); assay: NCI 60 growth inhibition; type: cell-based, human; conditions: Leukemia
[3] = tested on: NCI/ADR-RES; assay: NCI 60 growth inhibition; type: cell-based, human; conditions: Ovarian Cancer
[4] = tested on: T-47D; assay: NCI 60 growth inhibition; type: cell-based, human; conditions: Breast Cancer
[5] = tested on: HOP-62; assay: NCI 60 growth inhibition; type: cell-based, human; conditions: HOP-62, Non-Small Cell Lung Cancer
[6] = tested on: SK-MEL-28; assay: NCI 60 growth inhibition; type: cell-based, human; conditions: SK-MEL-28, Melanoma
[7] = tested on: BT-549; assay: NCI 60 growth inhibition; type: cell-based, human; conditions: BT-549, Breast Cancer
[8] = tested on: SK-MEL-5; assay: NCI 60 growth inhibition; type: cell-based, human; conditions: SK-MEL-5, Melanoma
[9] = tested on: SR; assay: NCI 60 growth inhibition; type: cell-based, human; conditions: Leukemia
[10] = tested on: HCT-15; assay: NCI 60 growth inhibition; type: cell-based, human; conditions: HCT-15, Colon Cancer
[11] = tested on: NCI-H522; assay: NCI 60 growth inhibition; type: cell-based, human; conditions: NCI-H522, Non-Small Cell Lung Cancer
[12] = tested on: SK-OV-3; assay: NCI 60 growth inhibition; type: cell-based, human; conditions: SK-OV-3, Ovarian Cancer
[13] = tested on: M14; assay: NCI 60 growth inhibition; type: cell-based, human; conditions: M14, Melanoma
[14] = tested on: NCI-H322M; assay: NCI 60 growth inhibition; type: cell-based, human; conditions: Non-Small Cell Lung Cancer
[15] = tested on: SF-268; assay: NCI 60 growth inhibition; type: cell-based, human; conditions: SF-268, CNS Cancer
[16] = tested on: CAKI-1; assay: NCI 60 growth inhibition; type: cell-based, human; conditions: CAKI-1, Renal Cancer
[17] = tested on: U251; assay: NCI 60 growth inhibition; type: cell-based, human; conditions: U251, CNS Cancer
[18] = tested on: LOX IMVI; assay: NCI 60 growth inhibition; type: cell-based, human; conditions: Melanoma
[19] = tested on: HOP-92; assay: NCI 60 growth inhibition; type: cell-based, human; conditions: HOP-92, Non-Small Cell Lung Cancer
[20] = tested on: HT29; assay: NCI 60 growth inhibition; type: cell-based, human
[21] = tested on: primary AML cell line AML1; assay: Anti-leukemic activity, Annexin V/7-AAD flow cytometry; type: cell-based, human; conditions: Homo sapiens, AML1, 24 h, 24 h of drug exposure; read-out: AML#1 (EC50)
Experimental: as §1

[22] = tested on: primary AML cell line AML2; assay: as above; type: cell-based, human; conditions: Homo sapiens, 24 h, 24 h of drug exposure; read-out: AML#2 (EC50)
Experimental: as §1

[23] = tested on: NCI panel of 60 human cancer cell lines; assay: NCI 60 growth inhibition, ranges over groups of cell lines; type: cell-based
Experimental: The above triazole derivatives of melampomagnolide B were evaluated for growth inhibitory properties against an NCI panel of 60 human cancer cell lines derived from nine human cancer cell types, grouped into disease sub-panels that represent leukemia, lung, colon, central nervous system (CNS), melanoma, renal, ovary, breast, and prostate cancer cells. Growth inhibitory (GI50) effects were measured as a function of the variation of optical density as a percentage of control.

[24] = tested on: UACC-62; assay: NCI 60 growth inhibition; type: cell-based, human; conditions: Homo sapiens; UACC-62, Melanoma, Table 2
[25] = Homo sapiens, HL-60(TB), Table 2
[26] = Homo sapiens, HT-29, Colon Cancer, Table 2

C=C1C(=O)O[C@H]2[C@H]1CC/C(Cn1cc(-c3ccsc3)nn1)=C\CC[C@@]1(C)O[C@@H]21 [JVM 4-53]
pEC50 [1]: 5.57
GI50 ([2]; HL-60 (TB), Table 3): 1910 nM
GI50 ([3]; Table 3): 3790 nM
GI50 ([4]; Table 3): 2030 nM
GI50 ([5]; Table 3): 4900 nM
GI50 ([6]; Table 3): 1810 nM
GI50 ([7]; Table 3): 1800 nM
GI50 ([8]; Table 3): 1830 nM
GI50 ([9]; Table 3): 560 nM
GI50 ([10]; Table 3): 1110 nM
GI50 ([11]; Table 3): 1390 nM
GI50 ([12]; Table 3): 17400 nM
GI50 ([13]; Table 3): 1930 nM
GI50 ([14]; Table 3): 10500 nM
GI50 ([15]; Table 3): 2530 nM
GI50 ([16]; Table 3): 1060 nM
GI50 ([17]; Table 3): 2500 nM
GI50 ([18]; Table 3): 1280 nM
GI50 ([19]; Table 3): 1660 nM
GI50 ([20]; HT29, Colon Cancer, Table 3): 1660 nM

C=C1C(=O)O[C@H]2[C@H]1CC/C(Cn1cc(-c3ccc(F)cc3)nn1)=C\CC[C@@]1(C)O[C@@H]21 [JVM 4-26]
pEC50 [21]: 5.96
pEC50 [22]: 5.72
GI50 ([23]; leukemia cell lines CCRF-CEM, HL-60(TB), K-562, MOLT-4 and SR, read-out: growth inhibition values): 240 to 940 nM
GI50 ([23]; most of the solid tumor cell lines in the panel, read-out: GI50): 180 to 940 nM
GI50 [2, 25]: 720 nM
GI50 ([3]; Homo sapiens, Table 2): 3050 nM
GI50 ([4]; Homo sapiens, T47D, Table 2): 740 nM
GI50 ([5]; Homo sapiens, Table 2): 3040 nM
GI50 ([6]; Homo sapiens, Table 2): 820 nM
GI50 ([7]; Homo sapiens, Table 2): 830 nM
GI50 ([8]; Homo sapiens, Table 2): 1740 nM
GI50 ([9]; Homo sapiens, Table 2): 250 nM
GI50 ([10]; Homo sapiens, Table 2): 280 nM
GI50 ([11]; Homo sapiens, Table 2): 250 nM
GI50 ([12]; Homo sapiens, Table 2): 9780 nM
GI50 ([13]; Homo sapiens, Table 2): 940 nM
GI50 ([14]; Homo sapiens, Table 2): 4390 nM
GI50 ([15]; Homo sapiens, Table 2): 1690 nM
GI50 ([16]; Homo sapiens, Table 2): 1030 nM
GI50 ([17]; Homo sapiens, U-251, Table 2): 2020 nM
GI50 ([18]; Homo sapiens, Table 2): 900 nM
GI50 ([19]; Homo sapiens, Table 2): 340 nM
GI50 [24]: 1260 nM
GI50 [20, 26]: 690 nM

C=C1C(=O)O[C@H]2[C@H]1CC/C(Cn1cc(-c3ccccc3)nn1)=C\CC[C@@]1(C)O[C@@H]21 [JVM 3-74, (1aR,7aS,10aS,10bS,E)-1a-Methyl-8-methylene-5-((4-phenyl-1H-1,2,3-triazol-1-yl)methyl)-2,3,6,7,7a,8,10a,10b-octahydrooxireno[2′,3′:9,10]cyclodeca[1,2-b]furan-9(1aH)-one]
pEC50 ([1]; M9-ENL1, 24 h): 5.72
GI50 ([23]; 60 cell, several cell lines in the NCI 60 cell panel, read-out: GI50): 200 to 990 nM
GI50 [2, 25]: 1490 nM
GI50 ([3]; Homo sapiens, Table 2): 6170 nM
GI50 ([4]; Homo sapiens, T47D, Table 2): 1300 nM
GI50 ([5]; Homo sapiens, Table 2): 7410 nM
GI50 ([6]; Homo sapiens, Table 2): 1060 nM
GI50 ([7]; Homo sapiens, Table 2): 2650 nM
GI50 ([8]; Homo sapiens, Table 2): 7320 nM
GI50 ([9]; Homo sapiens, Table 2): 1060 nM
GI50 ([10]; Homo sapiens, Table 2): 770 nM
GI50 ([11]; Homo sapiens, Table 2): 810 nM
GI50 ([12]; Homo sapiens, Table 2): 9950 nM
GI50 ([13]; Homo sapiens, Table 2): 1780 nM
GI50 ([14]; Homo sapiens, Table 2): 7790 nM
GI50 ([15]; Homo sapiens, Table 2): 5630 nM
GI50 ([16]; Homo sapiens, Table 2): 1280 nM
GI50 ([17]; Homo sapiens, U-251, Table 2): 7960 nM
GI50 ([18]; Homo sapiens, Table 2): 800 nM
GI50 ([19]; Homo sapiens, Table 2): 1420 nM
GI50 [24]: 1870 nM
GI50 [20, 26]: 1790 nM

C=C1C(=O)O[C@H]2[C@H]1CC/C(Cn1cc(-c3ccccc3C(F)(F)F)nn1)=C\CC[C@@]1(C)O[C@@H]21 [JVM 4-59]
pEC50 [1]: 5.41
GI50 ([2]; HL-60 (TB), Table 3): 2580 nM
GI50 ([3]; Table 3): 2990 nM
GI50 ([4]; Table 3): 1700 nM
GI50 ([5]; Table 3): 4730 nM
GI50 ([6]; Table 3): 1750 nM
GI50 ([7]; Table 3): 2400 nM
GI50 ([8]; Table 3): 1720 nM
GI50 ([10]; Table 3): 1050 nM
GI50 ([11]; Table 3): 1380 nM
GI50 ([12]; Table 3): 17300 nM
GI50 ([13]; Table 3): 2150 nM
GI50 ([14]; Table 3): 10800 nM
GI50 ([15]; Table 3): 2090 nM
GI50 ([16]; Table 3): 1310 nM
GI50 ([17]; Table 3): 1830 nM
GI50 ([18]; Table 3): 1110 nM
GI50 ([19]; Table 3): 1480 nM
GI50 ([20]; HT29, Colon Cancer, Table 3): 1790 nM
